Values of other authors as cited in patent US7064108B2 (Merck & Co., Inc., priority 2002, dated 2006).

Assays:
[1] = amicrofilaremic population in mass treatment programs
[2] = test system: glutamate-gated chloride ion channels; conditions: invertebrate nerve and muscle cells
[3] = test system: head lice (Pediculosis capitis); conditions: single oral 200 ug/kg dose, 26 patients
[4] = test system: mammalian ligand-gated chloride channels
Onchocerca volvulus [5] = test system: Onchocerca volvulus
head lice [6] = conditions: after a single topical application
Onchocerca volvulus [7] = conditions: after one month; single oral dose approximately 150 ug/kg
head lice [8] = conditions: single oral dose of 100–200 ug/kg

Row | Molecule | plasma half life (metabolite of ivermectin) | overall incidences of adverse experiences [1] | affinity for glutamate-gated chloride ion channels [2] | effect against head lice [3] | affinity for mammalian ligand-gated chloride channels [4] | activity against adult form (Onchocerca volvulus [5]; adult form of Onchocerca volvulus) | activity against tissue microfilariae (Onchocerca volvulus [5]; tissue microfilariae of Onchocerca volvulus) | plasma half-life (in vivo) | effect on head lice (head lice [6]) | dermal microfilarial density (Onchocerca volvulus [7]) | effect on head lice infestation (head lice [8])
1 | Nc1nc2cccc(-c3ccc(CN4CCS(=O)(=O)CC4)cc3)n2n1 [metabolite] | about 3 days | – | – | – | – | – | – | – | – | – | –
2 | Ivermectin | – | 1% | high affinity | effectiveness | low affinity | not against the adult form | active | 15 to 20 h | absolute curative effect | near zero | significant, but not absolute, effect
